# PMC6556873, “Rapid Covalent-Probe Discovery by Electrophile-Fragment Screening” (Journal of the American Chemical Society, 2019)
# Like-named read-outs stand apart in the source and are kept apart here.
# Legend:
# [1] = target: T1, BSA (Bos taurus, UniProt P02769); design: Intact protein LC/MS covalent labelling, fragments in pools of five, 200 uM each, 4 °C; conditions: 24 h, 4 °C, pool of five; 200 µM; covalent
# T1 construct: gene ALB
# Description: (§1) Incubations were performed at 200 μM for each compound and 2 μM of protein (10 μM for BSA) for 24 h at 4 °C with moderate shaking. Incubation buffers varied among proteins (PBS pH 7.4 for QSOX1 and BSA; 10 mM HEPES pH 7.5, 0.3 M NaCl, 0.5 mM TCEP for PCAF, UPS8, and NUDT7; […]; 10 mM Na2HPO4 pH 7.5 100 mM NaCl 5 mM β-mercaptoethanol for NV3CP; 20 mM Na phosphate pH 7.5 for NNMT; […]. The reaction was stopped by quenching with formic acid, 0.4% final concentration. Each protein was incubated with the electrophilic library in pools of five compounds per well. The pool’s composition maximized the difference in mass between fragments in the same well. Incubations were performed with each fragment at 200 μM, for 24 h at 4 °C, to allow the screening of proteins that are not stable for long time periods at higher temperatures. Following incubation, we used intact protein [compound left out] chromatography/mass spectrometry (LC/MS) to identify the fragments and quantify their labeling (Figure 3A). […] There was good agreement between the percent of labeling of NUDT7 by 100 random individual compounds and that obtained in pools of five (R^2=0.78; Figure S6 and Data set 2 in the Supporting Information).
# [2] = target: T2, NUDT7 (Homo sapiens, UniProt P0C024); design: Intact protein LC/MS covalent labelling, fragments in pools of five, 200 uM each, 4 °C; conditions: 24 h, 4 °C, pool of five; 200 µM; covalent
# T2 construct: residues 14-235, E. coli, pNIC28-Bsa4, N-terminal His6 tag removed by TEV, construct 26672 Da
# Description: as §1
# [3] = target: T3, OTUB2 (OTUB2A) (Homo sapiens, UniProt Q96DC9); design: Intact protein LC/MS covalent labelling, fragments in pools of five, 200 uM each, 4 °C; conditions: 24 h, 4 °C, pool of five; 200 µM; covalent
# T3 construct: full length residues 1-234, E. coli BL21(DE3)-R3, His tag removed by TEV, construct 27312 Da
# T3 sequence (Q96DC9 1-234): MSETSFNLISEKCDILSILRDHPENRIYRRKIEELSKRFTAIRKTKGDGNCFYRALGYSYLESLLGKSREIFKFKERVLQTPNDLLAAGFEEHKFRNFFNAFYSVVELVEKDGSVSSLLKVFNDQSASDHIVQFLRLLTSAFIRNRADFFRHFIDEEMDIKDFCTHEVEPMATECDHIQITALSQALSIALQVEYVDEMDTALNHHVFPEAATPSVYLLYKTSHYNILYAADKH
# Description: as §1
# [4] = target: T4, PCAF (Homo sapiens, UniProt Q92831); design: Intact protein LC/MS covalent labelling, fragments in pools of five, 200 uM each, 4 °C; conditions: 24 h, 4 °C, pool of five; 200 µM; covalent
# T4 construct: gene KAT2B
# Description: as §1
# [5] = in vitro; design: species or system CCD841, HEK293; conditions: human, hb2 cells, read-out: HB-2 Cells Viability (%)
# [6] = in vitro; design: species or system HB2, HEK293; conditions: human, ccd841 cells
# [7] = in vitro; design: species or system HB2, CCD841; conditions: human, hek293 cells
# T1 sequence (P02769 whole entry, the tested form may be a part): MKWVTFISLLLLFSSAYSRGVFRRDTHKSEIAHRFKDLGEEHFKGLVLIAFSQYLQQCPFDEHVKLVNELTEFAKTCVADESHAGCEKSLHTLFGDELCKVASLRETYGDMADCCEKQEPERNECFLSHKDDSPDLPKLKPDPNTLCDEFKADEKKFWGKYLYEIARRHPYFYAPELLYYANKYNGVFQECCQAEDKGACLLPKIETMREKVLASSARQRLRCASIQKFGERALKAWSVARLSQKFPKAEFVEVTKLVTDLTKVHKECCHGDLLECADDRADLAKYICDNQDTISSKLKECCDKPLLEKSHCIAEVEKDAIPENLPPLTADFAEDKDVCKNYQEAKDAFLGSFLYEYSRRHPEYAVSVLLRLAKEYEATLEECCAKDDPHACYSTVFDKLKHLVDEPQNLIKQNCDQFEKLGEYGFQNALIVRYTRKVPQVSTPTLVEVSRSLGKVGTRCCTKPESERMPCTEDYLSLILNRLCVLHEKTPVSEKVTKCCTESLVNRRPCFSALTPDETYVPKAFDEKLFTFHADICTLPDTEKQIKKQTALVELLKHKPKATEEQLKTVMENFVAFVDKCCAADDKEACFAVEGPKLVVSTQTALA
# T2 sequence (P0C024 14-235): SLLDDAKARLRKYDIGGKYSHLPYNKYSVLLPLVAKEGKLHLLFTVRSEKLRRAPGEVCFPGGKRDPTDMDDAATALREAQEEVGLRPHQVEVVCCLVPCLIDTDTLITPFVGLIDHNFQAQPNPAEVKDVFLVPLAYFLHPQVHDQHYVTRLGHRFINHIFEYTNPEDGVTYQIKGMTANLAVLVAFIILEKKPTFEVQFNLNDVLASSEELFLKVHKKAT
# T4 sequence (Q92831 whole entry, the tested form may be a part): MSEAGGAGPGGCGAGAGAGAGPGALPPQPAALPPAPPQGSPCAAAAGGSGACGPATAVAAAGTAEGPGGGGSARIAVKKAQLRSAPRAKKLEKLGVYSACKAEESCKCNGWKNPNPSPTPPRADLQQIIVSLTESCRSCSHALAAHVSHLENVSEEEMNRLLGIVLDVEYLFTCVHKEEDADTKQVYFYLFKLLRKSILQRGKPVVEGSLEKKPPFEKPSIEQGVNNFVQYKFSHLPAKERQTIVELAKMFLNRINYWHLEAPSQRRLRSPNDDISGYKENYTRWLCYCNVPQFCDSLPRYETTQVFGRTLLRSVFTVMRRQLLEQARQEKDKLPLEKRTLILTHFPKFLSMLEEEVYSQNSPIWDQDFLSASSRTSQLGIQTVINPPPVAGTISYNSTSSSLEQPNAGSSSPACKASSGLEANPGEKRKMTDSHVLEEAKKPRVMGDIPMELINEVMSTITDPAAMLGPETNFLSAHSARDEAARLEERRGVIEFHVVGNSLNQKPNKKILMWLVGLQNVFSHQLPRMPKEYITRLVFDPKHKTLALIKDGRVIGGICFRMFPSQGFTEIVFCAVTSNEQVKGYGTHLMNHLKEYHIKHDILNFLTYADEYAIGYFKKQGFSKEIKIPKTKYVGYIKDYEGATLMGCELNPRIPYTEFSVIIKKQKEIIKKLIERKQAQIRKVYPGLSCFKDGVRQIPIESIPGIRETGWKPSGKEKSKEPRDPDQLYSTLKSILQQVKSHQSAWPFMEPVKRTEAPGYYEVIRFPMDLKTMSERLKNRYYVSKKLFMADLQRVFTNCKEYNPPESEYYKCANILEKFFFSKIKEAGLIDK
SMILES,BSA [1],NUDT7 [2],OTUB2 [3],PCAF [4],"viability at 48 h, 10 µM [5]","viability at 48 h, 10 µM [6]","viability at 48 h, 10 µM [7]"
Cc1ccc(-c2csc(NC(=O)CCl)n2)cc1 [PCM-0102168],0,0.4,0,0,5.5%,67.9%,5.5%
Cc1ccc(NC(=O)NC(=O)CCl)c(C)c1 [PCM-0102171],0,0.2,0.1,0,78.8%,53.9%,74.7%
CC(=O)Nc1cccc(NC(=O)CCl)c1 [PCM-0102172],0,0,0,0,35.9%,53.4%,4.7%
COc1ccccc1N1CCN(C(=O)CCl)CC1.Cl [PCM-0102173],0,0,0,0,44.1%,76.9%,58.2%
O=C(CCl)NCc1cccc(Cl)c1 [PCM-0102174],0,0,0.25,0,83.4%,79.9%,74.3%
Cc1cc(NC(=O)CCl)ccc1N1CCCC1 [PCM-0102175],0.15,0.13,0.39,0,10.2%,45.1%,2.9%
Cc1ccc(NC(=O)CCl)cc1S(N)(=O)=O [PCM-0102177],0,0.1,0.27,0,8.9%,28.2%,1.4%
CN(C(=O)CCl)C1CCS(=O)(=O)C1 (stereo not shown) [PCM-0102178],0,0,0,0,56.9%,72.1%,31.5%
CC(NC(=O)CCl)c1cccs1 (stereo not shown) [PCM-0102180],0.24,0.16,0.55,0,93.5%,78.5%,75.1%
O=C(CCl)Nc1cccc(-c2nnc3n2CCCCC3)c1 [PCM-0102181],0,0,0,0,51.2%,73.2%,39.2%
Cc1c(C#N)c(NC(=O)CCl)n(C2CCCC2)c1C [PCM-0102183],0,0.28,0,0,23.9%,56.1%,9.1%
Cc1cccc(N2CCN(C(=O)CCl)CC2)c1.Cl [PCM-0102185],0,0.05,0,0,13.1%,65.7%,35.9%
CCN(C(=O)CCl)c1nc2ccccc2s1 [PCM-0102186],0,0.33,0,0,69.7%,16.1%,69.9%
